In patent publication US20110318393A1, “Substituted Pyrazole Compounds” (MIIKANA THERAPEUTICS, INC., priority 2008, published 2011):

Experiments:
[1] = biological target: T1, N-terminal His-tagged human Src (Homo sapiens, UniProt P12931); experiment: Src kinase inhibition assay (33P-ATP filter assay); assay type: biochemical; settings: 40 minutes, room temperature; less than or equal to 100 nM
T1 construct: His (N); purchased Upstate USA Inc, Charlottesville, Va
Protocol: (§1) Compounds were assayed for Src kinase inhibitory activity using N-terminal His-tagged human Src (Upstate USA Inc, 706 Forest Street, Charlottesville, Va.). Serial dilutions of compound were assayed in a final reaction volume of 25 μL by incubating a solution of the above Src kinase (5-10 mU), 8 mM MOPS (3-(N-morpholino)propanesulfonic acid) pH 7.0, 0.2 mM EDTA (ethylenediamine tetracetic acid), 250 μM amino acid sequence KVEKIGEGTYGVVYK (Upstate USA Inc, 706 Forest Street, Charlottesville, Va.), and 10 mM magnesium acetate and [γ-^33P-ATP] (specific activity of about 500 cpm/pmol, concentration as required). The reaction was initiated by the addition of the magnesium acetate and [γ-^33P-ATP] mixture. After incubation for 40 minutes at room temperature, the reaction was stopped by the addition of 5 μL of a 3% phosphoric acid solution. A 10 μL aliquote of the reaction was then spotted onto a P30 filtermat (PerkinElmer, Wellesley, Mass.) and washed three times for five minutes in 75 mM phosphoric acid and once in methanol prior to drying and scintillation counting. Inhibition of Src activity was determined by comparison to assays that contained no inhibitor.

[2] = biological target: T2, N-terminal His6-tagged recombinant human KDR, residues 790-end (Homo sapiens, UniProt P35968); experiment: KDR kinase inhibition assay (33P-ATP filter assay); assay type: biochemical; settings: 40 minutes, room temperature; less than or equal to 100 nM
T2 construct: recombinant human KDR, residues 790-end; His6 (N); purchased Upstate USA Inc, Charlottesville, Va
Protocol: as §1, with “for KDR” for “for Src”, “N-terminal His6-tagged recombinant” for “N-terminal His-tagged”, “human KDR, residues 790-end” for “human Src”, “above KDR” for “above Src”, “acid), 0.33 mg/mL myelin basic protein” for “acid), 250 μM amino acid sequence KVEKIGEGTYGVVYK”, “of KDR” for “of Src”

HCT-116 cell growth = experiment: Whole cell cytotoxicity assay: Sulforhodamine B; assay type: cell-based; settings: Homo sapiens, HCT116, 96 hours, SRB staining, less than or equal to 100 nM
Protocol: Human tumor-derived cell lines, HCT116 or MCF7 (ATCC) were plated in a 96 well plate in DMEM containing 10% fetal bovine serum and 2 mM L-glutamine at a density of 500 HCT116 cells or 1,000 MCF7 cells per well and incubated at 37° C., 5% CO2, for 24 hours prior to the addition of experimental compounds. Compounds were added using the dilution series indicated to duplicate plates and the cells were incubated in media plus compound for 96 hours. An additional plate was fixed in 10% TCA at the time of the addition of compound to provide a measurement of the cell population at time zero, the time of drug addition. […] The absorbance was read at 570 nm. Percentage growth was calculated using the absorbance readings from the time zero plate (Tz) and the dilution series plate […] which included a column of cells grown in media without compound as a control (C) using the formulas: […]
Three dose response parameters were calculated for each experimental agent. […] The drug concentration resulting in total growth inhibition (TGI) was calculated from Ti=Tz. […] Values are calculated for each of these three parameters if the level of activity was reached; however, if the effect was not reached or was exceeded, the value for that parameter is expressed as greater or less than the maximum or minimum concentration tested.

T1 sequence (P12931 whole entry): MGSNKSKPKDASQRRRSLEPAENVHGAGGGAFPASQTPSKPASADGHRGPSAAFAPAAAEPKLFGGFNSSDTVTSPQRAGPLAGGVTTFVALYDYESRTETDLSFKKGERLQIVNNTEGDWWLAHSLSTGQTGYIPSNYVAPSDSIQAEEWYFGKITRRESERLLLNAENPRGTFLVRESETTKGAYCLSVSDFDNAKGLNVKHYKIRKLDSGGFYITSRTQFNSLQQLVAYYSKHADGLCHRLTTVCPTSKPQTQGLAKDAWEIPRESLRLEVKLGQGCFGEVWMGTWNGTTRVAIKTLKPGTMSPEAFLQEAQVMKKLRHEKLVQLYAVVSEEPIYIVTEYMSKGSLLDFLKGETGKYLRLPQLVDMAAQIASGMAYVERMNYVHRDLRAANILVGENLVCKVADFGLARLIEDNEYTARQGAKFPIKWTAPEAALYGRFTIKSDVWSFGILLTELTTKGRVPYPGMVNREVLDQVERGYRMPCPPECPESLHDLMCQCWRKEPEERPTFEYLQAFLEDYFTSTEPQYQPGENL
T2 sequence (P35968 790-1356 limits assumed): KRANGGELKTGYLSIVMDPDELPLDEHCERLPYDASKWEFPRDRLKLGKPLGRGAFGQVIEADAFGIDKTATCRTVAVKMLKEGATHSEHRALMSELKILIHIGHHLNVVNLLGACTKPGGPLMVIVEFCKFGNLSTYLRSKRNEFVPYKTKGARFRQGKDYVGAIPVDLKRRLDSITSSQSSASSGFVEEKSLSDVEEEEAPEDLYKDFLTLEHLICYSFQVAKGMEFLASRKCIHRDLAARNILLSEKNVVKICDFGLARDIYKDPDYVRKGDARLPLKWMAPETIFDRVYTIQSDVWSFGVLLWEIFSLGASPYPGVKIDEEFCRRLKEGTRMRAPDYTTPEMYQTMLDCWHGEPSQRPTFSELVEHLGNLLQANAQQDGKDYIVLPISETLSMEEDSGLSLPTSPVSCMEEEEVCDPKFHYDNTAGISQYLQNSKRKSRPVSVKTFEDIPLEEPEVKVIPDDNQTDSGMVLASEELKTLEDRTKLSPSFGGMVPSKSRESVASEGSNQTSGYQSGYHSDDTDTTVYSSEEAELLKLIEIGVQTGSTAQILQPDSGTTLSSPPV

Row | IC50 [1] [µM] | IC50 [2] [µM] | SMILES | IC50 (HCT-116 cell growth) [µM]
1 | ≤ 0.1 | ≤ 0.1 | Cc1cc(Nc2cc(N3CCN(c4ccncc4)CC3)nc(/C=C/c3ccccc3)n2)n[nH]1 [Compound 22, (E)-N-(5-methyl-1H-pyrazol-3-yl)-6-(4-(pyridin-4-yl)piperazin-1-yl)-2-styrylpyrimidin-4-amine] | ≤ 0.1
2 | ≤ 0.1 | ≤ 0.1 | Cc1cc(Nc2cc(N3CCC(N4CCCCC4)CC3)nc(/C=C/c3ccccc3)n2)n[nH]1 [Compound 5, (E)-6-(1,4′-bipiperidin-1′-yl)-N-(5-methyl-1H-pyrazol-3-yl)-2-styrylpyrimidin-4-amine] | ≤ 0.1
